Read-outs that look alike come from different tables or passages of the source. Some results are limits rather than exact numbers.

For one experiment, the target named is Bcl-xL (Homo sapiens, UniProt Q07817). The experiment can be described thus: Time Resolved-Fluorescence Resonance Energy Transfer (TR-FRET) binding assay, competition with probe F-Bak. As for the experimental part:
Tb-anti-GST antibody was purchased from Invitrogen (Catalog No. PV4216).
For the assay, test compounds were serially diluted in DMSO starting at 50 μM (2× starting concentration; 10% DMSO) and 10 μL transferred into a 384-well plate. 10 μL of a protein/probe/antibody mix was then added to each well at final concentrations listed below:
The samples were then mixed on a shaker for 1 minute and incubated for an additional 2 hours at room temperature. For each assay plate, a probe/antibody and protein/antibody/probe mixture were included as a negative and a positive control, respectively. Fluorescence was measured on the Envision (Perkin Elmer) using a 340/35 nm excitation filter and 520/525 (F-Bak) and 495/510 nm (Tb-labeled anti-his antibody) emission filters. Dissociation constants (Ki) were determined using Wang's equation (Wang, 1995, FEBS Lett. 360:111-114). The TR-FRET assay can be performed in the presence of varying concentrations of human serum (HS) or fetal bovine serum (FBS). Compounds were tested both without HS and in the presence of 1% HS.
In general terms: Time-resolved FRET reads energy transfer from a long-lived donor to a nearby acceptor.

In experiment [1] the test system is Molt-4 human acute lymphoblastic leukemia cells. Put plainly: Molt-4 cell viability assay (CellTiter-Glo, 48 hours, 10% HS). The class given is cell-based. The conditions noted are these: non-permeabilized cells. Here is the method:
The ability of Bcl-xL inhibitors that are able to traverse cell membranes to inhibit Bcl-xL can be determined in cell-based killing assays using a variety of cell lines and mouse tumor models. For example, their activity on cell viability can be assessed on a panel of cultured tumorigenic and non-tumorigenic cell lines, as well as primary mouse or human cell populations.
In one exemplary set of conditions, Molt-4 (ATCC, Manassas, VA) human acute lymphoblastic leukemia cells were plated 12,500 cells per well in 384-well tissue culture plates (Corning, Corning, NY) in a total volume of 25 μL tissue culture medium supplemented with 10% human serum (Sigma-Aldrich, St. Louis, MO) and treated with a 3-fold serial dilution of the compounds of interest from 10 μM to 0.0005 μM. Each concentration was tested in duplicate at least 3 separate times. The number of viable cells following 48 hours of compound treatment was determined using the CellTiter-Glo®, Luminescent Cell Viability Assay according to the manufacturer's recommendations (Promega Corp., Madison, WI). Compounds were tested in the presence of 10% HS.
(In ATP-based viability assays light output follows the ATP content of the culture.)

Setting [2] is: in the presence of 1% HS, read-out: Bcl-xL Binding Ki (nM, 1% HS).
Setting [3] is: without HS, read-out: Bcl-xL Binding Ki.

Bcl-xL, sequence (Q07817 whole entry): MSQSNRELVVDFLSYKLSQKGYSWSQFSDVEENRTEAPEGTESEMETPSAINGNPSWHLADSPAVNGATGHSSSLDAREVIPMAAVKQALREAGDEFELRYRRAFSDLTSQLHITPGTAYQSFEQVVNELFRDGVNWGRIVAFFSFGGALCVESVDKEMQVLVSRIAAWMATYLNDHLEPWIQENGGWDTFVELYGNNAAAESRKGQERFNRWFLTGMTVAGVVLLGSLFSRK

Consider `Cc1c(-c2ccc(N3CCc4cccc(C(=O)Nc5nc6ccccc6s5)c4C3)nc2C(=O)O)cnn1CC12CC3(C)CC(C)(C1)CC(OCCNCCc1cn([C@@H]4O[C@H](C(=O)O)[C@@H](O)[C@H](O)[C@H]4O)nn1)(C3)C2` [Example 1.9, 8-(1,3-benzothiazol-2-ylcarbamoyl)-2-{6-carboxy-5-[1-({3-[2-({2-[1-(beta-D-glucopyranuronosyl)-1H-1,2,3-triazol-4-yl]ethyl}amino)ethoxy]-5,7-dimethyltricyclo[3.3.1.1^3,7]dec-1-yl}methyl)-5-methyl-1H-pyrazol-4-yl]pyridin-2-yl}-1,2,3,4-tetrahydroisoquinoline], for which the Ki on Bcl-xL (setting [2]) is 0.047 nM; at Bcl-xL (setting [3]), less than 0.001 nM.
`Cc1c(-c2ccc(-c3ccc4c(c3)N(C(=O)Nc3nc5ccccc5s3)CCO4)nc2C(=O)O)cnn1CC12CC3(C)CC(C)(C1)CC(OCCNCCS(=O)(=O)O)(C3)C2` [Example 1.51, 6-[4-(1,3-benzothiazol-2-ylcarbamoyl)-3,4-dihydro-2H-1,4-benzoxazin-6-yl]-3-{1-[(3,5-dimethyl-7-{2-[(2-sulfoethyl)amino]ethoxy}tricyclo[3.3.1.1^3,7]dec-1-yl)methyl]-5-methyl-1H-pyrazol-4-yl}pyridine-2-carboxylic acid]: the Ki on Bcl-xL (setting [2]) is 0.17 nM; on Bcl-xL (setting [3]), less than 0.001 nM. A half-maximal response in experiment [1] (Homo sapiens, MOLT-4, 48 h) (EC50) required 555 nM.
Take `Cc1c(-c2ccc(N3CCc4cccc(C(=O)Nc5nc6ccccc6s5)c4C3)nc2C(=O)O)cnn1CC12CC3(C)CC(C)(C1)CC(OCCN(C)C(=O)[C@H](N)CC(=O)O)(C3)C2` [Example 1.27]: the figures for the Ki on Bcl-xL (setting [2]) and at Bcl-xL (setting [3]) were 0.18 nM and less than 0.001 nM, respectively. In experiment [1], this molecule displayed an EC50 of 935 nM.
As to `CNCCOC12CC3(C)CC(C)(CC(Cn4ncc(-c5ccc(N6CCc7c(OCCCP(=O)(O)O)ccc(C(=O)Nc8nc9ccccc9s8)c7C6)nc5C(=O)O)c4C)(C3)C1)C2` [Example 1.31, 6-[8-(1,3-benzothiazol-2-ylcarbamoyl)-5-(3-phosphonopropoxy)-3,4-dihydroisoquinolin-2 (1H)-yl]-3-[1-({3,5-dimethyl-7-[2-(methylamino)ethoxy]tricyclo[3.3.1.1^3,7]dec-1-yl}methyl)-5-methyl-1H-pyrazol-4-yl]pyridine-2-carboxylic acid], the Ki at Bcl-xL (setting [2]) is 0.055 nM; on Bcl-xL (setting [3]), less than 0.001 nM. The molecule also showed an EC50 in experiment [1] (Homo sapiens, MOLT-4, 48 h) of 446 nM.
On to `Cc1c(-c2ccc(-c3ccc4cccc(C(=O)Nc5nc6ccccc6s5)c4c3)nc2C(=O)O)cnn1CC12CC3(C)CC(C)(C1)CC(OCCNCCS(=O)(=O)O)(C3)C2` [Example 1.43, 6-[8-(1,3-benzothiazol-2-ylcarbamoyl)naphthalen-2-yl]-3-{1-[(3,5-dimethyl-7-{2-[(2-sulfoethyl)amino]ethoxy}tricyclo[3.3.1.1^3,7]dec-1-yl)methyl]-5-methyl-1H-pyrazol-4-yl}pyridine-2-carboxylic acid], for which the Ki is 0.86 nM at Bcl-xL (setting [2]) and less than 0.001 nM at Bcl-xL (setting [3]). The molecule also displayed an EC50 in experiment [1] (Homo sapiens, MOLT-4, 48 h) of 185 nM.
Regarding `Cc1c(-c2ccc(-c3ccc4c(c3)N(C(=O)Nc3nc5ccccc5s3)CCC4)nc2C(=O)O)cnn1CC12CC3(C)CC(C)(C1)CC(OCCN(C)C(=O)[C@@H](N)CS(=O)(=O)O)(C3)C2` [Example 1.21, 6-[1-(1,3-benzothiazol-2-ylcarbamoyl)-1,2,3,4-tetrahydroquinolin-7-yl]-3-(1-[(3,5-dimethyl-7-(2-[methyl(3-sulfo-L-alanyl)amino]ethoxy}tricyclo[3.3.1.1^3,7]dec-1-yl)methyl]-5-methyl-1H-pyrazol-4-yl)pyridine-2-carboxylic acid], the Ki at Bcl-xL (setting [2]) worked out at 0.22 nM; on Bcl-xL (setting [3]), 0.004 nM. In experiment [1] (Homo sapiens, MOLT-4, 48 h), the midpoint of the response, the EC50, lay at 420 nM.
Turning to `Cc1c(-c2ccc(N3CCc4cccc(C(=O)Nc5nc6ccccc6s5)c4C3)nc2C(=O)O)cnn1CC12CC3(C)CC(C)(C1)CC(OCCN(CCS(=O)(=O)O)C(=O)[C@@H](N)CS(=O)(=O)O)(C3)C2` [Example 1.37, 6-[8-(1,3-benzothiazol-2-ylcarbamoyl)-3,4-dihydroisoquinolin-2 (1H)-yl]-3-{1-[(3,5-dimethyl-7-{2-[(3-sulfo-L-alanyl)(2-sulfoethyl)amino]ethoxy}tricyclo[3.3.1.1^3,7]dec-1-yl)methyl]-5-methyl-1H-pyrazol-4-yl}pyridine-2-carboxylic acid], the results for the Ki at Bcl-xL (setting [2]) and on Bcl-xL (setting [3]) were 0.294 nM and less than 0.001 nM, respectively. In addition, in experiment [1] (Homo sapiens, MOLT-4, 48 h), the EC50 is 805 nM.
As for `Cc1c(-c2ccc(N3CCc4cccc(C(=O)Nc5nc6ccccc6s5)c4C3)nc2C(=O)O)cnn1CC12CC3(C)CC(C)(CC(CCCNCCS(=O)(=O)O)(C3)C1)C2` [Example 1.91, 6-{8-[(1,3-benzothiazol-2-yl)carbamoyl]-3,4-dihydroisoquinolin-2 (1H)-yl}-3-{1-[(3,5-dimethyl-7-{3-[(2-sulfoethyl)amino]propyl}tricyclo[3.3.1.1^3,7]decan-1-yl)methyl]-5-methyl-1H-pyrazol-4-yl}pyridine-2-carboxylic acid], the Ki on Bcl-xL (setting [2]) is 2.8 nM; at Bcl-xL (setting [3]), 0.064 nM.
For `Cc1c(-c2ccc(N3CCc4cccc(C(=O)Nc5nc6ccccc6s5)c4C3)nc2C(=O)O)cnn1CC12CC3(C)CC(C)(C1)CC(OCCNCCCC(=O)O)(C3)C2` [Example 1.56, 6-[8-(1,3-benzothiazol-2-ylcarbamoyl)-3,4-dihydroisoquinolin-2 (1H)-yl]-3-{1-[(3-{2-[(3-carboxypropyl)amino]ethoxy}-5,7-dimethyltricyclo[3.3.1.1^3,7]dec-1-yl)methyl]-5-methyl-1H-pyrazol-4-yl}pyridine-2-carboxylic acid], the Ki is 0.123 nM at Bcl-xL (setting [2]) and less than 0.001 nM at Bcl-xL (setting [3]). In addition, in experiment [1] (Homo sapiens, MOLT-4, 48 h), the response was half-maximal at 196 nM (EC50).
The matching figures for `Cc1c(-c2ccc(N3CCc4cccc(C(=O)Nc5nc6cccnc6s5)c4C3)nc2C(=O)O)cnn1CC12CC3(C)CC(C)(C1)CC(OCCNCCCP(=O)(O)O)(C3)C2` [Example 1.40, 3-{1-[(3,5-dimethyl-7-{2-[(3-phosphonopropyl)amino]ethoxy}tricyclo[3.3.1.1^3,7]dec-1-yl)methyl]-5-methyl-1H-pyrazol-4-yl}-6-[8-([1,3]thiazolo[5,4-b]pyridin-2-ylcarbamoyl)-3,4-dihydroisoquinolin-2 (1H)-yl]pyridine-2-carboxylic acid]: 6.28 nM, less than 0.001 nM and 6480 nM.
For the molecule `Cc1c(-c2ccc(N3CCc4cccc(C(=O)Nc5nc6ccccc6s5)c4C3)nc2C(=O)O)cnn1CC12CC3(C)CC(C)(C1)CC(SCCNCCS(=O)(=O)O)(C3)C2` [Example 1.90, 6-[8-(1,3-benzothiazol-2-ylcarbamoyl)-3,4-dihydroisoquinolin-2 (1H)-yl]-3-(1-{[3,5-dimethyl-7-((2-[(2-sulfoethyl)amino]ethyl)sulfanyl)tricyclo[3.3.1.1^3,7]dec-1-yl]methyl)-5-methyl-1H-pyrazol-4-yl)pyridine-2-carboxylic acid], the results for the Ki on Bcl-xL (setting [2]) and at Bcl-xL (setting [3]) were 4.2 nM and 0.13 nM, respectively.
For `Cc1c(-c2ccc(N3CCc4cccc(C(=O)Nc5nc6ccccc6s5)c4C3)nc2C(=O)O)cnn1CC12CC3(C)CC(C)(C1)CC(NC(=O)CNCCS(=O)(=O)O)(C3)C2` [Example 1.89, 6-{8-[(1,3-benzothiazol-2-yl)carbamoyl]-3,4-dihydroisoquinolin-2 (1H)-yl)-3-{1-[(3,5-dimethyl-7-{2-[(2-sulfoethyl)amino]acetamido}tricyclo[3.3.1.1^3,7]decan-1-yl)methyl]-5-methyl-1H-pyrazol-4-yl}pyridine-2-carboxylic acid], the Ki on Bcl-xL (setting [2]) is 0.97 nM; on Bcl-xL (setting [3]), less than 0.01 nM.
`CO[C@H]1O[C@@H](Cn2cc(CCCNCCOC34CC5(C)CC(C)(CC(Cn6ncc(-c7ccc(N8CCc9cccc(C(=O)Nc%10nc%11ccccc%11s%10)c9C8)nc7C(=O)O)c6C)(C5)C3)C4)nn2)[C@H](O)[C@@H](O)[C@@H]1O` [Example 1.67, methyl 6-[4-(3-{[2-({3-[(4-{6-[8-(1,3-benzothiazol-2-ylcarbamoyl)-3,4-dihydroisoquinolin-2 (1H)-yl]-2-carboxypyridin-3-yl}-5-methyl-1H-pyrazol-1-yl)methyl]-5,7-dimethyltricyclo[3.3.1.1^3,7]dec-1-yl}oxy)ethyl]amino}propyl)-1H-1,2,3-triazol-1-yl]-6-deoxy-beta-L-glucopyranoside]: the Ki was 0.51 nM on Bcl-xL (setting [2]) and less than 0.01 nM on Bcl-xL (setting [3]).
For the molecule `Cc1c(-c2ccc(-c3ccc4c(c3)N(C(=O)Nc3nc5ccccc5s3)CCC4)nc2C(=O)O)cnn1CC12CC3(C)CC(C)(C1)CC(OCCN(C)C1CNC1)(C3)C2` [Example 1.65, 3-{1-[(3-{2-[azetidin-3-yl(methyl)amino]ethoxy}-5,7-dimethyltricyclo[3.3.1.1^3,7]dec-1-yl)methyl]-5-methyl-1H-pyrazol-4-yl}-6-[1-(1,3-benzothiazol-2-ylcarbamoyl)-1,2,3,4-tetrahydroquinolin-7-yl]pyridine-2-carboxylic acid], the Ki at Bcl-xL (setting [2]) is 0.099 nM; on Bcl-xL (setting [3]) it was less than 0.01 nM.

As usually defined, the Ki is the dissociation constant of the complex between target and ligand, obtained from inhibition or displacement. Broadly, the EC50 is the concentration that produces a half-maximal response. A lower EC50 goes with higher potency in that assay.

The record behind these values is patent US20240058450A1, “BCL-XL Inhibitory Compounds Having Low Cell Permeability and Antibody Drug Conjugates Including the Same” (AbbVie Inc., priority 2014, published 2024).
